PubChem BioAssay (NCI)
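Cells were grown in 96-well plates and exposed to each compound for 48 hours at five concentrations; endpoints were interpolated linearly between bracketing concentrations, or set to the highest concentration if not reached. TGI marks complete inhibition of growth.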

How the values were obtained:
Assay in all cases: NCI-60 cell line screen, 48 h
SF-295 CNS = tested on: SF-295 CNS
SK-OV-3 ovarian = tested on: SK-OV-3 ovarian
MALME-3M melanoma = tested on: MALME-3M melanoma
ACHN renal = tested on: ACHN renal
CCRF-CEM leukemia = tested on: CCRF-CEM leukemia
SNB-78 CNS = tested on: SNB-78 CNS
SW-620 colon = tested on: SW-620 colon
KM12 colon = tested on: KM12 colon
MOLT-4 leukemia = tested on: MOLT-4 leukemia
DMS 114 small cell lung = tested on: DMS 114 small cell lung
A549 NSCLC = tested on: A549 NSCLC
DMS 273 small cell lung = tested on: DMS 273 small cell lung
SK-MEL-5 melanoma = tested on: SK-MEL-5 melanoma
SF-268 CNS = tested on: SF-268 CNS
HOP-18 NSCLC = tested on: HOP-18 NSCLC
K-562 leukemia = tested on: K-562 leukemia
U251 CNS = tested on: U251 CNS
TK-10 renal = tested on: TK-10 renal
SK-MEL-2 melanoma = tested on: SK-MEL-2 melanoma
XF 498 CNS = tested on: XF 498 CNS
HCT-116 colon = tested on: HCT-116 colon
UO-31 renal = tested on: UO-31 renal
UACC-257 melanoma = tested on: UACC-257 melanoma
DLD-1 colon = tested on: DLD-1 colon
LOX IMVI melanoma = tested on: LOX IMVI melanoma
OVCAR-8 ovarian = tested on: OVCAR-8 ovarian
A498 renal = tested on: A498 renal
HL-60(TB) leukemia = tested on: HL-60(TB) leukemia
RXF 393 renal = tested on: RXF 393 renal
UACC-62 melanoma = tested on: UACC-62 melanoma
IGROV1 ovarian = tested on: IGROV1 ovarian
NCI-H226 lung = tested on: NCI-H226 lung
SNB-19 CNS = tested on: SNB-19 CNS
SK-MEL-28 melanoma = tested on: SK-MEL-28 melanoma
HT29 colon = tested on: HT29 colon
OVCAR-3 ovarian = tested on: OVCAR-3 ovarian
NCI-H460 lung = tested on: NCI-H460 lung
SF-539 CNS = tested on: SF-539 CNS
HCT-15 colon = tested on: HCT-15 colon
NCI-H522 lung = tested on: NCI-H522 lung
NCI-H23 lung = tested on: NCI-H23 lung
SN12C renal = tested on: SN12C renal
SNB-75 CNS = tested on: SNB-75 CNS
LXFL 529 NSCLC = tested on: LXFL 529 NSCLC
SR leukemia = tested on: SR leukemia
RPMI-8226 leukemia = tested on: RPMI-8226 leukemia
OVCAR-4 ovarian = tested on: OVCAR-4 ovarian
M14 melanoma = tested on: M14 melanoma
COLO 205 colon = tested on: COLO 205 colon
HOP-62 NSCLC = tested on: HOP-62 NSCLC
OVCAR-5 ovarian = tested on: OVCAR-5 ovarian
M19-MEL melanoma = tested on: M19-MEL melanoma
HOP-92 NSCLC = tested on: HOP-92 NSCLC
CAKI-1 renal = tested on: CAKI-1 renal
786-0 renal = tested on: 786-0 renal

COc1ccc(/C=N/NC(=O)NCCCN(C)C)cc1
TGI (SF-295 CNS): > 100 µM
TGI (SK-OV-3 ovarian): > 100 µM
TGI (MALME-3M melanoma): > 100 µM
TGI (ACHN renal): > 100 µM
TGI (CCRF-CEM leukemia): > 100 µM
TGI (SNB-78 CNS): > 100 µM
TGI (SW-620 colon): > 100 µM
TGI (KM12 colon): > 100 µM
TGI (MOLT-4 leukemia): > 100 µM
TGI (DMS 114 small cell lung): > 100 µM
TGI (A549 NSCLC): > 100 µM
TGI (DMS 273 small cell lung): > 100 µM
TGI (SK-MEL-5 melanoma): > 100 µM
TGI (SF-268 CNS): > 100 µM
TGI (HOP-18 NSCLC): > 100 µM
TGI (K-562 leukemia): > 100 µM
TGI (U251 CNS): > 100 µM
TGI (TK-10 renal): > 100 µM
TGI (SK-MEL-2 melanoma): > 100 µM
TGI (XF 498 CNS): > 100 µM
TGI (HCT-116 colon): > 100 µM
TGI (UO-31 renal): > 100 µM
TGI (UACC-257 melanoma): > 100 µM
TGI (DLD-1 colon): > 100 µM
TGI (LOX IMVI melanoma): > 100 µM
TGI (OVCAR-8 ovarian): > 100 µM
TGI (A498 renal): > 100 µM
TGI (HL-60(TB) leukemia): > 100 µM
TGI (RXF 393 renal): > 100 µM
TGI (UACC-62 melanoma): > 100 µM
TGI (IGROV1 ovarian): > 100 µM
TGI (NCI-H226 lung): > 100 µM
TGI (SNB-19 CNS): > 100 µM
TGI (SK-MEL-28 melanoma): > 100 µM
TGI (HT29 colon): > 100 µM
TGI (OVCAR-3 ovarian): > 100 µM
TGI (NCI-H460 lung): > 100 µM
TGI (SF-539 CNS): > 100 µM
TGI (HCT-15 colon): > 100 µM
TGI (NCI-H522 lung): > 100 µM
TGI (NCI-H23 lung): > 100 µM
TGI (SN12C renal): > 100 µM

O=c1c2ccccc2nc(-c2ccccc2)n1NC(=S)Nc1ccc(Cl)cc1[N+](=O)[O-]
TGI (SNB-75 CNS): > 100 µM
TGI (SF-295 CNS): > 100 µM
TGI (LXFL 529 NSCLC): > 100 µM
TGI (SK-OV-3 ovarian): > 100 µM
TGI (SR leukemia): > 100 µM
TGI (MALME-3M melanoma): > 100 µM
TGI (ACHN renal): > 100 µM
TGI (RPMI-8226 leukemia): > 100 µM
TGI (CCRF-CEM leukemia): > 100 µM
TGI (SW-620 colon): > 100 µM
TGI (KM12 colon): > 100 µM
TGI (OVCAR-4 ovarian): > 100 µM
TGI (MOLT-4 leukemia): > 100 µM
TGI (DMS 114 small cell lung): > 100 µM
TGI (A549 NSCLC): > 100 µM
TGI (M14 melanoma): > 100 µM
TGI (DMS 273 small cell lung): > 100 µM
TGI (SK-MEL-5 melanoma): > 100 µM
TGI (SF-268 CNS): > 100 µM
TGI (HOP-18 NSCLC): > 100 µM
TGI (K-562 leukemia): > 100 µM
TGI (COLO 205 colon): > 100 µM
TGI (U251 CNS): > 100 µM
TGI (TK-10 renal): > 100 µM
TGI (SK-MEL-2 melanoma): > 100 µM
TGI (HCT-116 colon): > 100 µM
TGI (UO-31 renal): > 100 µM
TGI (UACC-257 melanoma): > 100 µM
TGI (DLD-1 colon): > 100 µM
TGI (LOX IMVI melanoma): > 100 µM
TGI (HOP-62 NSCLC): > 100 µM
TGI (OVCAR-8 ovarian): > 100 µM
TGI (A498 renal): > 100 µM
TGI (HL-60(TB) leukemia): > 100 µM
TGI (OVCAR-5 ovarian): > 100 µM
TGI (M19-MEL melanoma): > 100 µM
TGI (RXF 393 renal): > 100 µM
TGI (HOP-92 NSCLC): > 100 µM
TGI (UACC-62 melanoma): > 100 µM
TGI (IGROV1 ovarian): > 100 µM
TGI (NCI-H226 lung): 82.4 µM
TGI (SK-MEL-28 melanoma): 82.4 µM
TGI (HT29 colon): > 100 µM
TGI (NCI-H460 lung): > 100 µM
TGI (SF-539 CNS): > 100 µM
TGI (CAKI-1 renal): > 100 µM
TGI (HCT-15 colon): > 100 µM
TGI (NCI-H522 lung): > 100 µM
TGI (NCI-H23 lung): > 100 µM
TGI (SN12C renal): > 100 µM
TGI (786-0 renal): > 100 µM
